Reference: ChEMBL document CHEMBL1641484, “Efficient synthesis of trisaccharide saponins and their tumor cell killing effects through oncotic necrosis” (Bioorg Med Chem Lett, 2011)
Calls of active or inactive are those of the source. The rule behind the calls is not given here.

Tests used:
KB [1] = experiment: Cytotoxicity against human KB cells after 4 hrs by MTT assay; type: functional, cell-based
[2] = Cytotoxicity against human U87 cells after 4 hrs by MTT assay; type: functional, cell-based, U-87MG ATCC; conditions: U-87 MG
MCF7 [3] = experiment: Cytotoxicity against human MCF7 cells after 4 hrs by MTT assay; type: functional, cell-based; conditions: MCF7, 4 h
K562 [4] = experiment: Cytotoxicity against human K562 cells after 4 hrs by MTT assay; type: functional, cell-based; conditions: K562, 4 h
[5] = Cytotoxicity against human HL-7702 cells after 4 hrs by MTT assay; type: cell-based; conditions: L02, 4 h
H9c2 = experiment: Cytotoxicity against rat H9c2 cells after 4 hrs by MTT assay; type: cell-based; conditions: H9c2, 4 h
[6] = Cytotoxicity against human EVC304 cells after 4 hrs by MTT assay; type: cell-based; conditions: EVC304, 4 h
MCF7 [7] = experiment: Anticancer activity against human MCF7 cells assessed as loss of plasma membrane integrity at 5 uM after 180 mins by LDH release assay; type: functional, cell-based
KB [8] = experiment: Anticancer activity against human KB cells assessed as loss of cell membrane integrity after 12 hrs by propidium iodide staining-based fluorescence microscopy; type: functional
K562 [9] = experiment: Anticancer activity against human K562 cells assessed as membrane surface blebs at 5 uM after 30 to 60 mins by time-lapse microscopy; type: functional, cell-based
K562 [10] = experiment: Anticancer activity against human K562 cells assessed as loss of plasma membrane integrity at 5 uM after 180 mins by LDH release assay; type: functional, cell-based
K562 [11] = experiment: Anticancer activity against human K562 cells assessed as loss of plasma membrane integrity at 5 uM after 10 mins by LDH release assay; type: functional, cell-based
K562 [12] = experiment: Anticancer activity against human K562 cells assessed as loss of cell membrane integrity after 12 hrs by propidium iodide staining-based fluorescence microscopy; type: functional
MCF7 [13] = experiment: Anticancer activity against human MCF7 cells assessed as loss of microtubules and actin microfilaments after 12 hrs by immunostaining; type: functional, cell-based
K562 [14] = experiment: Anticancer activity against human K562 cells assessed as membrane surface blebs at 5 uM after 15 to 30 mins by time-lapse microscopy; type: functional, cell-based
MCF7 [15] = experiment: Anticancer activity against human MCF7 cells assessed as loss of plasma membrane integrity at 5 uM after 10 mins by LDH release assay; type: functional, cell-based

Structure (SMILES)	IC50 (KB [1]) [µM]	IC50 [2] [µM]	IC50 (MCF7 [3]) [µM]	IC50 (K562 [4]) [µM]	IC50 [5] [µM]	IC50 (H9c2) [µM]	IC50 [6] [µM]	Activity (MCF7 [7])	Activity (KB [8])	Activity (K562 [9])	Activity (K562 [10])	Activity (K562 [11])	Activity (K562 [12])	Activity (MCF7 [13])	Activity (K562 [14])	Activity (MCF7 [15])
C[C@@H]1O[C@@H](O[C@H]2[C@H](O[C@H]3CC[C@]4(C)[C@H]5CC[C@]6(C)C(=CC[C@@]7(C)CCC(C)(C)C[C@H]76)[C@]5(C)CC[C@H]4C3(C)C)O[C@H](CO)[C@H](O)[C@@H]2O[C@@H]2OC[C@@H](O)[C@H](O)[C@H]2O)[C@H](O)[C@H](O)[C@H]1O	> 40	> 40	> 40	> 40												
C=C(C)[C@@H]1CC[C@]2(C)CC[C@]3(C)[C@H](CC[C@@H]4[C@@]5(C)CC[C@H](O[C@@H]6O[C@H](CO)[C@H](O)[C@H](O[C@@H]7OC[C@@H](O)[C@H](O)[C@H]7O)[C@H]6O[C@@H]6O[C@@H](C)[C@H](O)[C@@H](O)[C@H]6O)C(C)(C)[C@@H]5CC[C@]43C)[C@@H]12	> 40	> 40	> 40	> 40												
CC[C@H](CC[C@@H](C)[C@H]1CC[C@H]2[C@@H]3CC=C4C[C@@H](O[C@@H]5O[C@H](CO)[C@H](O)[C@H](O[C@@H]6OC[C@@H](O)[C@H](O)[C@H]6O)[C@H]5O[C@@H]5O[C@@H](C)[C@H](O)[C@@H](O)[C@H]5O)CC[C@]4(C)[C@H]3CC[C@]12C)C(C)C	> 40	> 40	> 40	> 40												
CC(C)CCC[C@@H](C)[C@H]1CC[C@H]2[C@@H]3CC=C4C[C@@H](O[C@@H]5O[C@H](CO)[C@H](O)[C@H](O[C@@H]6OC[C@@H](O)[C@H](O)[C@H]6O)[C@H]5O[C@@H]5O[C@@H](C)[C@H](O)[C@@H](O)[C@H]5O)CC[C@]4(C)[C@H]3CC[C@]12C	16.3	16.5	9.48	11.3	> 20	> 20	> 20									
C[C@@H]1CC[C@@]2(OC1)O[C@H]1C[C@H]3[C@@H]4CC=C5C[C@@H](O[C@@H]6O[C@H](CO)[C@H](O)[C@H](O[C@@H]7OC[C@@H](O)[C@H](O)[C@H]7O)[C@H]6O[C@@H]6O[C@@H](C)[C@H](O)[C@@H](O)[C@H]6O)CC[C@]5(C)[C@H]4CC[C@]3(C)[C@H]1[C@@H]2C [INDIOSIDE E]	1.71	2.48	1.82	3.74	4.81	> 20	3.93									
C[C@@H]1CC[C@@]2(OC1)O[C@H]1C[C@H]3[C@@H]4CC[C@H]5C[C@@H](O[C@@H]6O[C@H](CO)[C@H](O)[C@H](O[C@@H]7OC[C@@H](O)[C@H](O)[C@H]7O)[C@H]6O[C@@H]6O[C@@H](C)[C@H](O)[C@@H](O)[C@H]6O)CC[C@]5(C)[C@H]4CC[C@]3(C)[C@H]1[C@@H]2C	1.32	3.12	2.61	3.77	6.92	> 20	1.03	Active	Active	Active	Active	Active	Active	Active	inactive	Active
